# Patent US20180263985A1, “MODULATORS OF TOLL-LIKE RECEPTORS FOR THE TREATMENT OF HIV” (Gilead Sciences, Inc., priority 2015, published 2018)
# Columns and labels:
# Type in all cases: cell-based, human
# [1] = test system: NK Cells; test: Immune cell activation in PBMC cultures, flow cytometry: NK cells; settings: for NK Cells CD25 Fold / NK Cells CD69 Fold: 2 days, N = 6
# Experimental: (§1) TLR8 is expressed on multiple immune cell subsets. To determine how treatment with a TLR8 modulating compound affects activation of distinct cell populations, PBMCs were purified from HIV-1 infected subjects on cART, as described in Example 121 (anonymized participant IDs 184, 185, 188, 189, 190, and 191). […] After incubation, PBMCs were harvested and stained with antibodies conjugated to specific fluorophores (BD Biosciences) to delineate immune cell subsets: CD4 T cells (CD3+CD4+CD8−), CD8 T cells (CD3+CD8+CD4−), NK cells (CD3−CD56+CD16+), monocytes (CD3−CD14+), B cells (CD3−CD19+), and peripheral dendritic cells (DCs), defined as positive for HLA-DR and negative for a panel of markers: CD3, CD14, CD16, CD19, CD20, CD56 (Lin-1 lineage panel, BD Biosciences).
# (§2) Additional markers of activation, maturation, and effector function were included for cell subsets, as follows: CD4 and CD8 T cells (CD25, CD38, CD69, IFN-γ, granzyme B, perforin, TNF-α), NK cells (CD25, CD69, IFN-γ), monocytes (CD11c, CD16, CD80, CD86, CD163, TNF-α), B cells (CD40, CD69, CD80, CD86), and DC (CD11c, CD69, CD80, CD86, CD123, and CD163). Cells were stained for surface markers (CD3, CD4, CD8, CD11c, CD14, CD16, CD25, CD69, CD80, CD86, CD163), washed, treated with fixation and permeabilization buffer (eBioscience), and stained for intracellular markers (IFN-γ, granzyme B, perforin, TNF-α). Cells were evaluated by flow cytometry on a LSR Fortessa (BD Biosciences), and data was analyzed with FlowJo software (TreeStar).
# (§3) Data are expressed as geometric mean percentage (%) and as geometric mean fold-activation (Fold) for each marker and for each PBMC subset obtained from 4 or 6 subjects, as indicated. Fold activation is calculated as a ratio of the % positive for each marker for each PBMC subset at the indicated concentration of the compound of Example 15 relative to % positive for DMSO treated samples. Fold activations that are 1.5 are in bold.
# [2] = test system: CD4+ T Cells; test: Immune cell activation in PBMC cultures, flow cytometry: CD4+ T cells; settings: 2 days, N = 6
# Experimental: as §1, §2, §3
# [3] = test system: HIV-specific polyfunctional CD8 T cells; test: Induced HIV-specific polyfunctional CD8+ T cells in PBMC cultures from HIV-1 infected subjects on cART
# [4] = test system: B Cells; test: Immune cell activation in PBMC cultures, flow cytometry: B cells; settings: for B Cells CD69 Fold / B Cells CD80 Fold / B Cells CD69 % / B Cells CD80 %: 2 days, N = 4
# Experimental: as §1, §2, §3
# [5] = test system: Monocytes; test: Immune cell activation in PBMC cultures, flow cytometry: monocytes
# Experimental: as §1, §2, §3
compound,measurement,setting,value
CCCC[C@H](CO)Nc1nc(N)nc2cccnc12 [Example 15],NK Cells CD25 Fold,[1]; 10 nM vs DMSO,0.4 fold
same,NK Cells CD69 Fold,[1]; 10 nM vs DMSO,0.4 fold
same,NK Cells CD25 Fold,[1]; 100 nM vs DMSO,1.6 fold
same,NK Cells CD69 Fold,[1]; 100 nM vs DMSO,0.6 fold
same,NK Cells CD69 Fold,[1]; 1000 nM vs DMSO,12.4 fold
same,NK Cells CD25 Fold,[1]; 3000 nM vs DMSO,9.6 fold
same,NK Cells CD69 Fold,[1]; 3000 nM vs DMSO,11.8 fold
same,Concentration of maximal activation of NK cells,[1]; increased expression of CD25 and CD69,1000 nM
same,CD4+ T Cells CD25 Fold,[2]; 10 nM vs DMSO,0.6 fold
same,CD4+ T Cells CD69 Fold,[2]; 10 nM vs DMSO,0.7 fold
same,CD4+ T Cells Perforin Fold,[2]; 10 nM vs DMSO,1.5 fold
same,CD4+ T Cells CD25 %,[2]; 10 nM,1.5%
same,CD4+ T Cells CD69 %,[2]; 10 nM,5.7%
same,CD4+ T Cells CD25 Fold,[2]; 100 nM vs DMSO,1.7 fold
same,CD4+ T Cells CD69 Fold,[2]; 100 nM vs DMSO,1.0 fold
same,CD4+ T Cells Perforin Fold,[2]; 100 nM vs DMSO,1.3 fold
same,CD4+ T Cells CD25 %,[2]; 100 nM,3.9%
same,CD4+ T Cells CD69 %,[2]; 100 nM,7.7%
same,CD4+ T Cells CD25 Fold,[2]; 1000 nM vs DMSO,1.8 fold
same,CD4+ T Cells CD69 Fold,[2]; 1000 nM vs DMSO,1.5 fold
same,CD4+ T Cells Perforin Fold,[2]; 1000 nM vs DMSO,1.8 fold
same,CD4+ T Cells CD25 %,[2]; 1000 nM,4.2%
same,CD4+ T Cells CD25 Fold,[2]; 3000 nM vs DMSO,1.3 fold
same,CD4+ T Cells CD69 Fold,[2]; 3000 nM vs DMSO,1.7 fold
same,CD4+ T Cells Perforin Fold,[2]; 3000 nM vs DMSO,2.1 fold
same,CD4+ T Cells CD25 %,[2]; 3000 nM,3.0%
same,CD4+ T Cells Perforin %,[2]; 3000 nM,17.0%
same,Patients in whom increases in HIV-specific polyfunctional CD8 T cells were seen,[3]; 100 nM,3 of 5
same,Median HIV-specific polyfunctional CD8 T cells (% proliferating CD8+ cells double positive for IFN-γ and TNF-α),"[3]; 100 nM, HIV peptide pool, 5 subjects",0.99%
same,Patients in whom increases in HIV-specific polyfunctional CD8 T cells were seen,[3]; 1000 nM,4 of 5
same,Fold increase of median HIV-specific polyfunctional CD8 T cells,"[3]; 1000 nM with HIV specific peptide pool vs vehicle, p<0.05",2.7 fold
same,B Cells CD69 Fold,[4]; 10 nM vs DMSO,1.2 fold
same,B Cells CD80 Fold,[4]; 10 nM vs DMSO,1.6 fold
same,B Cells CD69 %,[4]; 10 nM,10.0%
same,B Cells CD80 %,[4]; 10 nM,2.6%
same,B Cells CD69 Fold,[4]; 100 nM vs DMSO,0.5 fold
same,B Cells CD80 Fold,[4]; 100 nM vs DMSO,1.1 fold
same,B Cells CD69 %,[4]; 100 nM,3.9%
same,B Cells CD80 %,[4]; 100 nM,1.7%
same,B Cells CD69 Fold,[4]; 1000 nM vs DMSO,1.1 fold
same,B Cells CD80 Fold,[4]; 1000 nM vs DMSO,1.4 fold
same,B Cells CD69 %,[4]; 1000 nM,9.1%
same,B Cells CD80 %,[4]; 1000 nM,2.2%
same,B Cells CD69 Fold,[4]; 3000 nM vs DMSO,1.7 fold
same,B Cells CD80 Fold,[4]; 3000 nM vs DMSO,1.9 fold
same,B Cells CD80 %,[4]; 3000 nM,3.0%
same,Concentration of maximal activation of B cells,[4]; increased expression of CD69 and CD80,3000 nM
same,Monocytes CD11c Fold,"[5]; 10 nM vs DMSO, 2 days, N = 6",0.6 fold
same,Monocytes CD69 Fold,"[5]; 10 nM vs DMSO, 2 days, N = 6",0.3 fold
same,Monocytes CD80 Fold,"[5]; 10 nM vs DMSO, 2 days, N = 6",1.1 fold
same,Monocytes CD11c %,"[5]; 10 nM, 2 days, N = 6",0.4%
same,Monocytes CD69 %,"[5]; 10 nM, 2 days, N = 6",0.8%
same,Monocytes CD80 %,"[5]; 10 nM, 2 days, N = 6",33.0%
same,Monocytes CD11c Fold,"[5]; 100 nM vs DMSO, 2 days, N = 6",5.2 fold
same,Monocytes CD69 Fold,"[5]; 100 nM vs DMSO, 2 days, N = 6",0.6 fold
same,Monocytes CD80 Fold,"[5]; 100 nM vs DMSO, 2 days, N = 6",1.6 fold
same,Monocytes CD11c %,"[5]; 100 nM, 2 days, N = 6",3.6%
same,Monocytes CD69 %,"[5]; 100 nM, 2 days, N = 6",1.8%
same,Monocytes CD11c Fold,"[5]; 1000 nM vs DMSO, 2 days, N = 6",1.6 fold
same,Monocytes CD69 Fold,"[5]; 1000 nM vs DMSO, 2 days, N = 6",2.0 fold
same,Monocytes CD80 Fold,"[5]; 1000 nM vs DMSO, 2 days, N = 6",3.0 fold
same,Monocytes CD11c %,"[5]; 1000 nM, 2 days, N = 6",1.2%
same,Monocytes CD69 %,"[5]; 1000 nM, 2 days, N = 6",6.2%
same,Monocytes CD11c Fold,"[5]; 3000 nM vs DMSO, 2 days, N = 6",2.1 fold
same,Monocytes CD69 Fold,"[5]; 3000 nM vs DMSO, 2 days, N = 6",2.6 fold
same,Monocytes CD80 Fold,"[5]; 3000 nM vs DMSO, 2 days, N = 6",2.7 fold
same,Monocytes CD11c %,"[5]; 3000 nM, 2 days, N = 6",1.5%
same,Monocytes CD69 %,"[5]; 3000 nM, 2 days, N = 6",7.9%
same,Concentration of maximal activation of monocytes,[5]; increased expression of CD11c,100 nM
same,Concentration of maximal activation of monocytes,[5]; increased expression of CD69,3000 nM
same,Concentration of maximal activation of monocytes,[5]; increased expression of CD80,1000 nM
